Measured values: ChEMBL document CHEMBL5113492, “Design, synthesis, and biological evalution of bifunctional inhibitors against Hsp90-HDAC6 interplay” (Eur J Med Chem, 2022)
The source made the active and inactive calls. No cut-off for these calls is given here.

Assays:
[1] = biological target: T1, Heat shock protein HSP90 (Homo sapiens) (UniProt P07900+P08238); experiment: Inhibition of HSP90 in human NCI-H1975 cells assessed as upregulation of HSP70 expression at 2 uM incubated for 24 hrs by western blot analysis; type: cell-based
[2] = biological target: T2, Protein deacetylase HDAC6 (Homo sapiens) (UniProt Q9UBN7); experiment: Inhibition of HDAC6 in human NCI-H1975 cells assessed as increase in acetylation of alpha tubulin at 2 uM incubated for 24 hrs by western blot analysis; type: cell-based
T2 sequence (whole entry): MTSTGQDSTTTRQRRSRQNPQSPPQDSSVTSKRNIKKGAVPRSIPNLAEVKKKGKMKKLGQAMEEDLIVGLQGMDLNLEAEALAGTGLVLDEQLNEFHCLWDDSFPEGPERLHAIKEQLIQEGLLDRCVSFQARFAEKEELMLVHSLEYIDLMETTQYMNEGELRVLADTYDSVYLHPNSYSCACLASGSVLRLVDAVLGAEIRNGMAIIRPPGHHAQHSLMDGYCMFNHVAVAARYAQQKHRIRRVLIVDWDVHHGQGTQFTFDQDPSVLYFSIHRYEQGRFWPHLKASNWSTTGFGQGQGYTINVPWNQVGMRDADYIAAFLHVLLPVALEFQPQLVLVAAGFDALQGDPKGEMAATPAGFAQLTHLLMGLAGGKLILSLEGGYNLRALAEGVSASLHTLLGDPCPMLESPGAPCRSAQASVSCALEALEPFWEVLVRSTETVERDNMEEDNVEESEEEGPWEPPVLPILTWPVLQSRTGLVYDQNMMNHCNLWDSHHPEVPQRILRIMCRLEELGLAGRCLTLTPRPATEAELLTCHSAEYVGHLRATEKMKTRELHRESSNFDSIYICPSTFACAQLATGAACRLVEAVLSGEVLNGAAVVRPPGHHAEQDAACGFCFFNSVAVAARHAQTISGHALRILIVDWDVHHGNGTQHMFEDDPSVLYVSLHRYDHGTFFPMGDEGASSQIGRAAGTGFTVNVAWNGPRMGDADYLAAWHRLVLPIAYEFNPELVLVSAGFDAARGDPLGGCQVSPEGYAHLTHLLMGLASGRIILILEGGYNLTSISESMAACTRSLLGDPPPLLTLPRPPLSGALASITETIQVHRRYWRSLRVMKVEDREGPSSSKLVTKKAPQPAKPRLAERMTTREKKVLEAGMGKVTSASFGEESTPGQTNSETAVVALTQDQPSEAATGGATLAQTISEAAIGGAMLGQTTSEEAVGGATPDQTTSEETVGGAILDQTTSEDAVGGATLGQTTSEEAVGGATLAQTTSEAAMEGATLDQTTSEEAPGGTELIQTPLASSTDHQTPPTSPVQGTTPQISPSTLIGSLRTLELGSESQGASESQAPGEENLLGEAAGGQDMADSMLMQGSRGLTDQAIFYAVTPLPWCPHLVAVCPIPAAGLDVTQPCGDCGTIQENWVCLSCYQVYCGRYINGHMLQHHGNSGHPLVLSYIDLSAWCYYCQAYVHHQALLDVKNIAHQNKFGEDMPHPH

NCI-H1975 [3] = experiment: Induction of apoptosis in human NCI-H1975 cells assessed as caspase-3 cleavage at 0.05 to 2 uM incubated for 24 hrs by western blot analysis; type: functional, cell-based; details: dose 0.05-2 µM, DDE = dose-dependent effect
Mus musculus [4] = experiment: In vivo inhibition of HSP90 in human NCI-H1975 cells xenografted with NSG mouse assessed as downregulation of EGFR expression at 50 mg/kg,ip measured after 6 weeks by immunohistochemistry analysis; type: functional, organism-based
NCI-H1975 [5] = experiment: Antitumor activity against NSG mouse xenografted with human NCI-H1975 cells assessed as reduction on tumor growth at 25 mg/kg,ip measured after 2 weeks; type: functional, organism-based
[6] = biological target: T1, Heat shock protein HSP90 (Homo sapiens); experiment: Inhibition of HSP90 in human NCI-H1975 cells assessed as downregulation of EGFR expression at 2 uM incubated for 24 hrs by western blot analysis; type: cell-based
[7] = biological target: T2, Protein deacetylase HDAC6 (Homo sapiens); experiment: Inhibition of HDAC6 in human NCI-H1975 cells assessed as increase in acetylation of alpha tubulin at 1 uM incubated for 24 hrs by DAPI staining based immunofluorescence microscopy; type: cell-based
NCI-H1975 [8] = experiment: Antitumor activity against NSG mouse xenografted with human NCI-H1975 cells assessed as reduction on tumor growth at 50 mg/kg,ip measured after 2 weeks; type: functional, organism-based
[9] = biological target: T1, Heat shock protein HSP90 (Homo sapiens); experiment: Inhibition of HSP90 in human NCI-H1975 cells assessed as downregulation of Her2 expression at 2 uM incubated for 24 hrs by western blot analysis; type: cell-based
[10] = biological target: T2, Protein deacetylase HDAC6 (Homo sapiens); experiment: Inhibition of HDAC6 in human NCI-H1975 cells assessed as increase in acetylation of HSP90-Lys 294 residue at 2 uM incubated for 24 hrs by western blot analysis; type: cell-based
[11] = biological target: T1, Heat shock protein HSP90 (Homo sapiens); experiment: Inhibition of HSP90 in human NCI-H1975 cells assessed as downregulation of EGFR expression at 0.05 to 2 uM incubated for 24 hrs by western blot analysis; type: cell-based; details: dose 0.05-2 µM, DDE = dose-dependent effect
Mus musculus [12] = experiment: In vivo inhibition of HSP90 in human NCI-H1975 cells xenografted with NSG mouse assessed as downregulation of EGFR expression at 25 mg/kg,ip measured after 6 weeks by immunohistochemistry analysis; type: functional, organism-based
[13] = Toxicity in NSG mouse xenografted with human NCI-H1975 cells assessed as change in structure of retina at 50 mg/kg,ip measured after 6 weeks by H and E staining based assay; type: organism-based; details: in vivo, 1008 h
[14] = biological target: T1, Heat shock protein HSP90 (Homo sapiens); experiment: Inhibition of HSP90 in human NCI-H1975 cells assessed as downregulation of Akt expression at 2 uM incubated for 24 hrs by western blot analysis; type: cell-based
[15] = biological target: Histone deacetylase 1 (Homo sapiens) (UniProt Q13547); experiment: Inhibition of HDAC1 in human NCI-H1975 cells assessed as increase in acetylation of Histone H3 at 2 uM incubated for 24 hrs by western blot analysis; type: cell-based
Histone deacetylase 1 (Homo sapiens), sequence (Q13547 whole entry): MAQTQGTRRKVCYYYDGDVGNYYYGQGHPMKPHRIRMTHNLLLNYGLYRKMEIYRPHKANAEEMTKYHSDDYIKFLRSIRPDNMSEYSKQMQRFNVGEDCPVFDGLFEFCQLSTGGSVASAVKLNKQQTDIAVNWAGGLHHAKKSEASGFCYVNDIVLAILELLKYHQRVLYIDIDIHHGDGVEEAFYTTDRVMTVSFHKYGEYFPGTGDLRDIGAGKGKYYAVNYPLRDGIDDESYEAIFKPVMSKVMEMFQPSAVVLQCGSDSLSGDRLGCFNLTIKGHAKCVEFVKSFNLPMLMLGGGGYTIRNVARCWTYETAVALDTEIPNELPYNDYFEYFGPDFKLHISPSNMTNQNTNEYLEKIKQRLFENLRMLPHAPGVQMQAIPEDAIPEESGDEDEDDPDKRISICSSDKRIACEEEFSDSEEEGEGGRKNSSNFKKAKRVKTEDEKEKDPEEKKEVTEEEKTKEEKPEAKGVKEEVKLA

[16] = biological target: T2, Protein deacetylase HDAC6 (Homo sapiens); experiment: Inhibition of HDAC6 in human NCI-H1975 cells assessed as downregulation of HDAC6 expression at 0.05 to 2 uM incubated for 24 hrs by western blot analysis; type: cell-based; details: dose 0.05-2 µM, DDE = dose-dependent effect
[17] = biological target: T1, Heat shock protein HSP90 (Homo sapiens); experiment: Inhibition of HSP90 in human NCI-H1975 cells assessed as downregulation of Her2 expression at 0.05 to 2 uM incubated for 24 hrs by western blot analysis; type: cell-based; details: dose 0.05-2 µM, DDE = dose-dependent effect
[18] = Toxicity in NSG mouse xenografted with human NCI-H1975 cells assessed as change in number of retina at 50 mg/kg,ip measured after 6 weeks by H and E staining based assay; type: organism-based; details: in vivo, 1008 h
[19] = biological target: T1, Heat shock protein HSP90 (Homo sapiens); experiment: Inhibition of HSP90 in human NCI-H1975 cells assessed as downregulation of Met expression at 2 uM incubated for 24 hrs by western blot analysis; type: cell-based
NCI-H1975 [20] = experiment: Induction of apoptosis in human NCI-H1975 cells assessed as caspase-8 cleavage at 0.05 to 2 uM incubated for 24 hrs by western blot analysis; type: functional, cell-based; details: dose 0.05-2 µM, DDE = dose-dependent effect
[21] = Toxicity in NSG mouse xenografted with human NCI-H1975 cells assessed as change in structure of retina at 25 mg/kg,ip measured after 6 weeks by H and E staining based assay; type: organism-based; details: in vivo, 1008 h

inhibition [1]: Active | inhibition [2]: Active | inhibition [6]: Active | inhibition [7]: Active | inhibition [9]: Active | inhibition [10]: Active | inhibition [11]: Dde | inhibition [14]: Active | inhibition [15]: Active | inhibition [16]: Dde | inhibition [17]: Dde | inhibition [19]: Active
SMILES: CC(C)c1cc(C(=O)N(C)Cc2ccc(C(=O)NO)cc2)c(O)cc1O
Activity (NCI-H1975 [3]): Dde | inhibition (Mus musculus [4]): Active | Activity (NCI-H1975 [5]): Active | Activity (NCI-H1975 [8]): Active | inhibition (Mus musculus [12]): Active | Activity [13]: Non-Toxic | Activity [18]: Non-Toxic | Activity (NCI-H1975 [20]): Dde | Activity [21]: Non-Toxic
